In patent US8932558B2, “Multi-subunit biological complexes for treatment of plaque-associated diseases” (Plaxgen Inc, priority 2007, dated 2015):

Experiments:
Type in all cases: biochemical
[1] = system: thrombus generated from the in vitro assembled plaques complexes; experiment: Thrombolytic assay with PLG cascade proteins; conditions: thrombus from cholesterol, lipids, CP and CO complexes
Method: To examine this, both PLG and PLG activators are used to target these clots. Thrombolytic assays are carried out in 100 μl reaction containing thrombus, generated from 100 μl of aggregates or plaque complexes, 1 μg of PLG and 20 ng of u-PA or t-PA in PBS buffer. The reactions are incubated at 37° C. for 1 hr and after every 15 min the tubes are gently tapped to mix the contents. After 1 hr incubation, 1 ml of PBS is added to all the tubes and the samples are visually examined for dissolution of the thrombus.
The thrombus generated from the cholesterol, lipids, CP, and CO complexes are incubated separately with PLG, u-PA and t-PA to examine whether these proteins individually could dissolve the clots.
This could be due to the inhibition of u-PA by the PAI-1 thereby preventing the activation of the PLG. In the next experiment, the aggregates of CP-Cholesterol, CP-Lipids, CP-Cholesterol-Lipids, Cholesterol-Lipids, CO-Cholesterol and CO-Lipids are individually used in CPA for five cycles to assemble complexes followed by their thrombus generation.
The example depicted in FIG. 18 illustrates the dissolution of thrombi by PLG and u-PA. […] Both the clots and the dissolved complexes are further examined under microscope to confirm the visual examination (FIGS. 18a, b, c and d). The thrombus formed in the urine is also dissolved by the action of PLG and u-PA.

[2] = system: iron loaded abeta42 aggregates mixed with CE proteins; experiment: Proteolysis of amyloid plaque complexes assembled on iron loaded abeta42 aggregates; conditions: 20 ng
Method: This example illustrates the use of the invention to evaluate the proteolytic degradation of the amyloid complexes. For example, iron loaded abeta42 aggregates are mixed with CE proteins, and the resulting template complexes are treated with five different serine proteases. More specifically, nine independent reactions are carried out with each containing 5.0 μg of the iron-loaded aggregates of abeta42 and 6.0 μg of the CE proteins. After incubation and washing, the complexes are suspended in 50 μl of PBS. The nine complexes are sub-divided into two groups, with six individual complexes comprising Group I and three complexes comprising Group II. In order to interrogate the role of the plasminogen (PLG) activation system, which is implicated in the catabolism of amyloid peptides as well as the pathobiology of amyloid diseases (Melchor J P et al, 2003; Van Nostrand W E et al, 1999; Kranenburg O, 2005), the Group II complexes are subjected to another cycle of binding with both PLG (0.5 μg) and BSA (0.5 μg) proteins. After binding and washing, the PLG and BSA bound plaques complexes are suspended in 50 μl of PBS.
For proteolysis analysis, five of the six Group I template complexes are incubated with 20 ng of each protease (plasnin, chymotrypsin, trypsin, proteinase K and urokinase). The remaining complex is used as a control without protease treatment. Among three complexes of the Group II containing PLG attached to them, one is treated with u-PA (20 ng), a second is treated with t-PA (20 ng) and the third complex is used as a control without protease treatment. All these plaque complexes are incubated at 37° C. for 1 hr and after every 15 min, the tubes are gently tapped in order to encourage mixing. After washing, both the proteases-treated and control plaque complexes are suspended in 20 μl PBS. The complexes are boiled for 10 min with sample solubilizing buffer and loaded in to 4-20% gradient SDS-PAGE. Further, the gels are processed for silver staining and the results are documented for further analysis.

[3] = target: T1, iron-loaded abeta40 templates plaque complex (Homo sapiens, UniProt P00747); experiment: Proteolysis of plaque complexes assembled on iron-loaded abeta40 templates
T1 construct: Lys-Plasminogen (PLG); purchased Enzyme Research Laboratories (IN, USA)
T1 sequence (P00747 97-810, one chain of several): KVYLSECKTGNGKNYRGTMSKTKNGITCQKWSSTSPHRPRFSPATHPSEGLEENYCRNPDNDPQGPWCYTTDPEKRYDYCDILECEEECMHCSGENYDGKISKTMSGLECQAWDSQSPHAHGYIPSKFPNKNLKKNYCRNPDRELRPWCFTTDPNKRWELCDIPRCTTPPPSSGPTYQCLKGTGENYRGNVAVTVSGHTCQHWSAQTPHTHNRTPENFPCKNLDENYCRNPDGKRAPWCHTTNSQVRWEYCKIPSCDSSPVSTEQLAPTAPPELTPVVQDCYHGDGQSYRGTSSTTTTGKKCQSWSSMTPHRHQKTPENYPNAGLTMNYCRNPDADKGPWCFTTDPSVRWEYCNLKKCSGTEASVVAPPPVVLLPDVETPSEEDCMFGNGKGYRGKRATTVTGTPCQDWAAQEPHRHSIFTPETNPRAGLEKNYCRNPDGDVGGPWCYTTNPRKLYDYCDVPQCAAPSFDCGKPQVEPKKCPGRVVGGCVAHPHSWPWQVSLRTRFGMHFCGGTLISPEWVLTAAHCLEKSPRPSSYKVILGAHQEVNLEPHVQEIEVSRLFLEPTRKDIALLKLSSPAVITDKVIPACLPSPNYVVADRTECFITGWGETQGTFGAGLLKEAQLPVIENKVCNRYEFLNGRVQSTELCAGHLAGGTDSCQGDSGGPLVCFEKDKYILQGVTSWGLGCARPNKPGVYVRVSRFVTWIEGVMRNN
Method: In order to verify the preceding results, such experiments are repeated using iron-loaded abeta40 templates for plaque complex formation. Proteins binding to the abeta40 templates appear to be cleared when they are treated with the same proteases.

[4] = target: T2, pre-assembled amyloid plaque like complexes (iron-loaded abeta42 templates) (Homo sapiens, UniProt P00747); experiment: Dissolution of pre-assembled amyloid plaque like complexes; conditions: 20 ng, 37° C., 1 hr
T2 construct: Lys-Plasminogen (PLG); purchased Enzyme Research Laboratories (IN, USA)
T2 sequence (P00747 97-810, one chain of several): as above
Method: In order to identify lead compounds able to dissolve the pre-assembled amyloid plaque like complexes, the preceding experiments are repeated to assemble complexes in three cycles using the iron-loaded abeta42 templates. Then, 50 μl of the resulting complexes is incubated with test compound/s (50 ng to 1 μg) for 1 hr at 37° C. followed by washing and analysis of the complexes for their dissolution. For example, 50 μl of the pre-assembled complexes is mixed with u-PA or t-PA (20 ng) at 37° C. for 1 hr followed by washing and protein estimation or gel analysis of the resultant complexes. […] This approach is also useful to optimize u-PA (PGN54) molecule for use as a therapeutic lead to treat patients with advanced amyloid diseases such as Alzheimer. Reducing the amyloid plaque burden or plaque build-up in the cerebral arteries would greatly improve or reverse the pathological symptoms associated with the amyloid diseases. In addition, to test the hypothesis of amyloid plaque burden reduction as an effective strategy, optimized u-PA or other plasminogen activators are used in the animal models of Alzheimer's disease.

- Activation of PLG-bound complex [3]: activate the PLG-bound complex
Substance: t-PA: tissue-type plasminogen activator
- Dissolution of thrombus, protein incubated separately [1]: did not show any dissolution
- Activation of PLG on PLG/BSA-attached complexes [2]: the inactive PLG is converted into active plasmin
- Protein concentration of pre-assembled complexes after incubation [4]: show reduction in the protein concentration
